In ChEMBL document CHEMBL1129561 (J Med Chem, 1996):

Key:
Progesterone receptor [1] = biological target: T1, Progesterone receptor (Homo sapiens, UniProt P06401)
T1 sequence (P06401 whole entry): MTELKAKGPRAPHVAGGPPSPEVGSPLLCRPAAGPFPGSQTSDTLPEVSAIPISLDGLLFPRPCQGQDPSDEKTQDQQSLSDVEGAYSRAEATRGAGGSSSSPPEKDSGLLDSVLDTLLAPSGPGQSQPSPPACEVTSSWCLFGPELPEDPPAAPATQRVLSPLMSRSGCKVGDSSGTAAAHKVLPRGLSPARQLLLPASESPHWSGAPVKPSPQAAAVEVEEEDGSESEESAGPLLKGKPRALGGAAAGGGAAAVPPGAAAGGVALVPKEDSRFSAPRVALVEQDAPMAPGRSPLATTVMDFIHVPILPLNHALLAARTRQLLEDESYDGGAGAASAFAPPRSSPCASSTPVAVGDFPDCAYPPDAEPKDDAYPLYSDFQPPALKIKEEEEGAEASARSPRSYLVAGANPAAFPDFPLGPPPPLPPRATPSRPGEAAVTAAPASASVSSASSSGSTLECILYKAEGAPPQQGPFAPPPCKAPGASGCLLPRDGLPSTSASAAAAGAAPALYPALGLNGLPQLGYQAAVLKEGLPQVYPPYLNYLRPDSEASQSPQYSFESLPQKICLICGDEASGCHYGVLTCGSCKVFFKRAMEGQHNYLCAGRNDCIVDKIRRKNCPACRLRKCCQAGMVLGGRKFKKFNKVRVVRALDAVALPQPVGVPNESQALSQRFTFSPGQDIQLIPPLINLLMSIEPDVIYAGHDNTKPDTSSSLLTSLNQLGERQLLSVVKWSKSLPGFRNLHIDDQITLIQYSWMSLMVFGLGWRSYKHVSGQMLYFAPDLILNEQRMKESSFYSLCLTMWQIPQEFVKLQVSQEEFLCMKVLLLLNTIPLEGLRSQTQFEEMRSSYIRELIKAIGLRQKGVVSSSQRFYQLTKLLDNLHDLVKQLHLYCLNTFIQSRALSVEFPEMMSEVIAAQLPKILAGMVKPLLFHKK

Androgen receptor = biological target: T2, Androgen receptor (Homo sapiens, UniProt P10275)
T2 sequence (P10275 whole entry): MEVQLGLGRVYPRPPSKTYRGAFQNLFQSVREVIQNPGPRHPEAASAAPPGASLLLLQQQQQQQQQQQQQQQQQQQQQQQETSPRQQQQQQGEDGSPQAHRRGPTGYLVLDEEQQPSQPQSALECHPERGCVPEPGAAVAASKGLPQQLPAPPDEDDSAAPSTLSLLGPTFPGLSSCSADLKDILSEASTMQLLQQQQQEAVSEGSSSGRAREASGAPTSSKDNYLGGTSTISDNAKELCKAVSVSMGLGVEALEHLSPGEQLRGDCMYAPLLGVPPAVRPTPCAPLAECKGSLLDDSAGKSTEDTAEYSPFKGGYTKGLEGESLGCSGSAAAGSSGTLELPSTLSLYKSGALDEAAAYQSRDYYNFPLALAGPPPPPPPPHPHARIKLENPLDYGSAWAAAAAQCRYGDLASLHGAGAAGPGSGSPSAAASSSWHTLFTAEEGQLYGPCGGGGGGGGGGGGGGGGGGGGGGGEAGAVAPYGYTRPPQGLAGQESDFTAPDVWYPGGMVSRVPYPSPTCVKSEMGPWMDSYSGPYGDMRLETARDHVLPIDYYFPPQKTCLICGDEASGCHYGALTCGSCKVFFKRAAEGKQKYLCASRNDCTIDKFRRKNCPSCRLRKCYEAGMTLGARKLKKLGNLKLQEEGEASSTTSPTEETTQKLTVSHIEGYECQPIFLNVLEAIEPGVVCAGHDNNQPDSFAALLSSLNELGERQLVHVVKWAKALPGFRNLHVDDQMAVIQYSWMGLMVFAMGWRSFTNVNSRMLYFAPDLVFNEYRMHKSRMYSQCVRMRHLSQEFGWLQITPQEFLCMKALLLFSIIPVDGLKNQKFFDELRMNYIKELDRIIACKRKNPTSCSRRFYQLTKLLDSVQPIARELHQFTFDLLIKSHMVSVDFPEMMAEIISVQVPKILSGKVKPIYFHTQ
Description: Binding affinity determined against human Androgen receptor

Glucocorticoid receptor = biological target: T3, Glucocorticoid receptor (Homo sapiens, UniProt P04150)
T3 sequence (P04150 whole entry): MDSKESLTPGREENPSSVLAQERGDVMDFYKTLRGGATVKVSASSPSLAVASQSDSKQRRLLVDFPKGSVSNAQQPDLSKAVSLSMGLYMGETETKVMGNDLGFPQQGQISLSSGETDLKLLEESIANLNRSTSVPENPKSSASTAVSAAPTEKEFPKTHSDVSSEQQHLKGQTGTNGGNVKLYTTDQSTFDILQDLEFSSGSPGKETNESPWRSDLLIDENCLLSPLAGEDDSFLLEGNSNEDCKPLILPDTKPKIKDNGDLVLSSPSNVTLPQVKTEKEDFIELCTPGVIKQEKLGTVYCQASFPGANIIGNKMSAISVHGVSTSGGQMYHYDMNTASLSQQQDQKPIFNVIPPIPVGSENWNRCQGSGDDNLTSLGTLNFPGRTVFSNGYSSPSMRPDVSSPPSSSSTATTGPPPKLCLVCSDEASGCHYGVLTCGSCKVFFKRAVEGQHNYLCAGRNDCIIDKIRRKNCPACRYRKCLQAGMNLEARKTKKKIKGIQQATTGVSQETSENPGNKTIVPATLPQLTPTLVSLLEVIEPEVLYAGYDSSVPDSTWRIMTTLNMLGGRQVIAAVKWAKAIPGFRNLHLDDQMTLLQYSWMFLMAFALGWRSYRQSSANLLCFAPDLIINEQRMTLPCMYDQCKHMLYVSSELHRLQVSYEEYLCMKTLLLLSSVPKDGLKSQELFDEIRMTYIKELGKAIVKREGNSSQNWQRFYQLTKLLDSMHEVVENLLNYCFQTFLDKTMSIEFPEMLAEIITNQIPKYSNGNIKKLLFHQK
Description: Inhibitory activity against human glucocorticoid receptor (hGR)

Progesterone receptor [2] = biological target: T1, Progesterone receptor; remark: listed apart in the source
Estrogen receptor [3] = biological target: T4, Estrogen receptor (Homo sapiens, UniProt Q92731+P03372)
Description: Inhibitory activity against human estrogen receptor

Estrogen receptor [4] = biological target: T4, Estrogen receptor; remark: listed apart in the source
Description: Binding affinity for human estrogen receptor

[5] = biological target: T5, Progesterone receptor (Homo sapiens) (UniProt P06401); settings: CV-1
T5 sequence (whole entry): T1 sequence (P06401 whole entry)

C=C1C=C(C)CC(C)(C)C1Cc1ccc([N+](=O)[O-])cc1 (configuration not stated) showed an IC50 (Progesterone receptor [1]) of 0.186 µM, a Ki (Androgen receptor) of 6.3 µM and an IC50 (Glucocorticoid receptor) of over 10 µM. It also gave an IC50 (Progesterone receptor [2]) of 1.05 µM, an IC50 (Estrogen receptor [3]) of over 10 µM and a Ki (Estrogen receptor [4]) of over 10 µM. It also gave a Max inhibition [5] of 90%.
